Measured values reported in EP0378255B1, “2-Aminopyrimidinone derivatives” (JANSSEN PHARMACEUTICA N.V., priority 1989, dated 1990).
Like-named read-outs stand apart in the source and are kept apart here.

Columns and labels:
[1] = tested on: compound 48/80; test: Protection of Rats from compound 48/80 induced lethality (antihistaminic activity); type: in vivo; conditions: Rattus norvegicus, read-out: Compound 48/80 tests ED₅₀ values Lethality
Description: (§1) Int. Pharmacodyn. Ther., 227, 238-253, 1977. Further the activity of the subject compounds as serotonin antagonists is evidenced by the experimental data obtained in the "Gastric Lesions induced by compound 48/80 in rats" test, described in U.S.-4,335,127. […] All tests were carried out following the procedures described in the cited references and the experimental data are shown in Table 8.

[2] = tested on: Tryptamine; test: Combined Apomorphine, Tryptamine and Norepinephrine (ATN) test in rats: tryptamine part; type: in vivo; conditions: Rattus norvegicus
[3] = tested on: Apomorphine; test: Combined Apomorphine, Tryptamine and Norepinephrine (ATN) test in rats: apomorphine part; type: in vivo; conditions: Rattus norvegicus; read-out: Combined ATN test in rats ED₅₀ values (APO)
[4] = tested on: Norepinephrine; test: Combined Apomorphine, Tryptamine and Norepinephrine (ATN) test in rats: norepinephrine part; type: in vivo; conditions: Rattus norvegicus; read-out: Combined ATN test in rats ED₅₀ values (NOR)
Description: as §1

[5] = tested on: compound 48/80; test: Gastric Lesions induced by compound 48/80 in rats (serotonin antagonism); type: in vivo; conditions: Rattus norvegicus, read-out: Compound 48/80 tests ED₅₀ values Gastric lesions
Description: as §1

[6] = tested on: Wistar rats; conditions: separated group of 8 rats, cited from earlier work
[7] = convulsions, read-out: Combined ATN test in rats ED₅₀ values (TRY) convulsions
[8] = hyperaemia, read-out: Combined ATN test in rats ED₅₀ values (TRY) hyperaemia

`Cc1nc2n(C)ncn2c(=O)c1CCN1CCC(c2noc3cc(F)ccc23)CC1` [Compound 89] gave an ED50 [1] of 0.02 mg/kg, an ED50 [2, 7] of 0.08 mg/kg and an ED50 [2, 8] of at most 0.0025 mg/kg. For the same compound, the ED50 [3] was 0.08 mg/kg, the ED50 [4] was 0.31 mg/kg and the ED50 [5] was 0.16 mg/kg.
In the case of `Cc1nc2n(C)c(C)cn2c(=O)c1CCN1CCN(c2noc3ccccc23)CC1` [Compound 111], the ED50 [2, 7] is reported as 0.31 mg/kg, the ED50 [2, 8] is reported as 0.005 mg/kg and the ED50 [3] is reported as 0.08 mg/kg. For the same compound, the ED50 [4] was 0.31 mg/kg and the ED50 [5] was 0.16 mg/kg.
In the case of `CC1=NN(C)c2nc(C)c(CCN3CCN(c4noc5ccccc45)CC3)c(=O)n2C1` [Compound 112], the ED50 [1] is reported as 0.16 mg/kg, the ED50 [2, 7] is reported as 0.31 mg/kg and the ED50 [2, 8] is reported as 0.005 mg/kg. For the same compound, the ED50 [3] was 0.08 mg/kg, the ED50 [4] was 0.63 mg/kg and the ED50 [5] was 0.04 mg/kg.
`Cc1nc2n(C)nc(C)n2c(=O)c1CCN1CCN(c2noc3ccccc23)CC1` [Compound 113] gave an ED50 [2, 7] of 0.31 mg/kg, an ED50 [2, 8] of 0.005 mg/kg and an ED50 [3] of 0.08 mg/kg. For the same compound, the ED50 [4] was 1.25 mg/kg and the ED50 [5] was 0.08 mg/kg.
`Cc1nc2n(C)ncn2c(=O)c1CCN1CCN(c2noc3ccccc23)CC1` [Compound 114] showed an ED50 [2, 7] of 0.31 mg/kg, an ED50 [2, 8] of at most 0.04 mg/kg and an ED50 [3] of 0.08 mg/kg. The ED50 [4] was 1.25 mg/kg and the ED50 [5] was 0.16 mg/kg.
In the case of `Cc1nc2n(c(=O)c1CCN1CCN(c3noc4ccccc34)CC1)CCN2C` [Compound 115], the ED50 [1] is reported as 0.04 mg/kg, the ED50 [2, 7] is reported as 0.31 mg/kg and the ED50 [2, 8] is reported as 0.005 mg/kg. For the same compound, the ED50 [3] was 0.08 mg/kg, the ED50 [4] was 1.25 mg/kg and the ED50 [5] was 0.02 mg/kg.
Compound `Cc1nc2n(c(=O)c1CCN1CCN(c3noc4ccccc34)CC1)CCCN2C` [Compound 120] has an ED50 [1] of 0.01 mg/kg, an ED50 [2, 7] of 0.08 mg/kg and an ED50 [2, 8] of 0.02 mg/kg. For the same compound, the ED50 [3] was 0.02 mg/kg, the ED50 [4] was 1.25 mg/kg and the ED50 [5] was 0.63 mg/kg.
With `Cc1nc2n(C)ccn2c(=O)c1CCN1CCN(c2nsc3ccccc23)CC1` [Compound 124] the ED50 [1] was 0.31 mg/kg, the ED50 [2, 7] was 0.02 mg/kg and the ED50 [2, 8] was 0.00125 mg/kg. The ED50 [3] was 0.08 mg/kg, the ED50 [4] was 5 mg/kg and the ED50 [5] was 0.04 mg/kg.
For `Cc1nc2sccn2c(=O)c1CCN1CCC(=C(c2ccc(F)cc2)c2ccc(F)cc2)CC1` [ritanserin, 6-[2-[4-[bis(4-fluorophenyl)methylene]-1-piperidinyl]ethyl]-7-methyl-5H-thiazolo[3,2-a]pyrimidin-5-one], the “effect on SWS2” value ([6]; 0.63 mg/kg, for 8 h, at the expense of W, SWS1 and PS) is given as “significant increase of SWS2” and the “effects on sleep-wakefulness patterns” value ([6]; doses of 0.04 and 0.16 mg/kg) is given as “no major effects on sleep-wakefulness patterns”.
